Experimental data published in patent US20240043427A1 (Gilead Sciences, Inc., priority 2020, published 2024).

Columns and labels:
CD73 [1] = biological target: T1, CD73 (Homo sapiens (Human), UniProt P21589); assay: MDA-MB-231 Cell Based CD73 Activity Assay (DMEM); conditions: MDA-MB-231-GFP cells, DMEM medium with 10% human plasma, 200 uM AMP
CD73 [2] = biological target: T1, CD73; type: biochemical; conditions: 1 mM NaH2PO4 in enzyme buffer, CD73 0.3 nM, AMP 15 uM

T1 sequence (P21589 27-574): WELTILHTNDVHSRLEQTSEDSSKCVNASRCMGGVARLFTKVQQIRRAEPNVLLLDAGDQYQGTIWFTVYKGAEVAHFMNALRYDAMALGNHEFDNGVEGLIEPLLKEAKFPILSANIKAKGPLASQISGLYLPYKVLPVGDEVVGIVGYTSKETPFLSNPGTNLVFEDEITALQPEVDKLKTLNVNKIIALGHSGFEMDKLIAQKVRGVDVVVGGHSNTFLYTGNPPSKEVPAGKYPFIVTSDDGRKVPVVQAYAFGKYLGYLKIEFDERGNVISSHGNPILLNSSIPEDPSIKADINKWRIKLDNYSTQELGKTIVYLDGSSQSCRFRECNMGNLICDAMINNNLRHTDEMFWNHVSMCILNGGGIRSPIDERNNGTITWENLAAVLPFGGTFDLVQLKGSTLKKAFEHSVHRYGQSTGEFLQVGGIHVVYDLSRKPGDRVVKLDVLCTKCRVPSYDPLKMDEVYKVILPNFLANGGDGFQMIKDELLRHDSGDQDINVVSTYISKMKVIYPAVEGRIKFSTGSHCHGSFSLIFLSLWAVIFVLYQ

| SMILES | EC50 (CD73 [1]) | IC50 (CD73 [2]) |
| --- | --- | --- |
| CC1(C)CN(c2cc(-c3c[nH]c(=O)[nH]c3=O)nc3c(Cl)cnn23)CC1(F)F [Example 220, 5-(3-chloro-7-(3,3-difluoro-4,4-dimethylpyrrolidin-1-yl)pyrazolo[1,5-a]pyrimidin-5-yl)pyrimidine-2,4(1H,3H)-dione] | 114 nM | 5.34 nM |
| CC1CN(c2cc(-c3c[nH]c(=O)[nH]c3=O)nc3ccnn23)CC1(F)F (centres unmarked) [Example 221, 5-(7-(3,3-difluoro-4-methylpyrrolidin-1-yl)pyrazolo[1,5-a]pyrimidin-5-yl)pyrimidine-2,4(1H,3H)-dione] | 74.9 nM | 13.1 nM |
| CC1CN(c2cc(-c3c[nH]c(=O)[nH]c3=O)nc3c(F)cnn23)CC1(F)F (centres unmarked) [Example 222, 5-(7-(3,3-difluoro-4-methylpyrrolidin-1-yl)-3-fluoropyrazolo[1,5-a]pyrimidin-5-yl)pyrimidine-2,4(1H,3H)-dione] | 133 nM | 17.4 nM |
| O=c1[nH]cc(-c2cc(N3C[C@H]4CCC[C@H]4C3)c3nccn3n2)c(=O)[nH]1 [Example 223, 5-(8-((3aR,6aS)-hexahydrocyclopenta[c]pyrrol-2(1H)-yl)imidazo[1,2-b]pyridazin-6-yl)pyrimidine-2,4(1H,3H)-dione] | 66.4 nM | 31.4 nM |
| O=c1[nH]cc(-c2cc(N3CC4C(C3)C4(F)F)c3nccn3n2)c(=O)[nH]1 (centres unmarked) [Example 224, 5-(8-(6,6-difluoro-3-azabicyclo[3.1.0]hexan-3-yl)imidazo[1,2-b]pyridazin-6-yl)pyrimidine-2,4(1H,3H)-dione] | 32.6 nM | 11.9 nM |
| O=c1[nH]cc(-c2cc(N3CC4CC4C3)c3nccn3n2)c(=O)[nH]1 (centres unmarked) [Example 225, 5-(8-(3-azabicyclo[3.1.0]hexan-3-yl)imidazo[1,2-b]pyridazin-6-yl)pyrimidine-2,4(1H,3H)-dione] | 106 nM | 15.2 nM |
| O=c1[nH]cc(-c2cc(NC3CCCC3)c3nccn3n2)c(=O)[nH]1 [Example 226, 5-(8-(cyclopentylamino)imidazo[1,2-b]pyridazin-6-yl)pyrimidine-2,4(1H,3H)-dione] | 410 nM | 121 nM |
| O=c1[nH]cc(-c2cc(NC3CCC(F)(F)C3)c3nccn3n2)c(=O)[nH]1 (centres unmarked) [Example 227, 5-(8-((3,3-difluorocyclopentyl)amino)imidazo[1,2-b]pyridazin-6-yl)pyrimidine-2,4(1H,3H)-dione] | 487 nM | > 250 nM |
| CC1(C)C2CN(c3cc(-c4c[nH]c(=O)[nH]c4=O)nn4ccnc34)CC21 (centres unmarked) [Example 228, 5-(8-(6,6-dimethyl-3-azabicyclo[3.1.0]hexan-3-yl)imidazo[1,2-b]pyridazin-6-yl)pyrimidine-2,4(1H,3H)-dione] | 146 nM | 31.2 nM |

Results, then the molecule that gave them:

| EC50 (CD73 [1]) | IC50 (CD73 [2]) | SMILES |
| --- | --- | --- |
| 175 nM | 56.9 nM | O=c1[nH]cc(-c2cc(N3CC[C@H](C(F)F)C3)c3nccn3n2)c(=O)[nH]1 [Example 229, (S)-5-(8-(3-(difluoromethyl)pyrrolidin-1-yl)imidazo[1,2-b]pyridazin-6-yl)pyrimidine-2,4(1H,3H)-dione] |
| 64.7 nM | 39.5 nM | O=c1[nH]cc(-c2cc(N3CC[C@@H](C(F)F)C3)c3nccn3n2)c(=O)[nH]1 [Example 230, (R)-5-(8-(3-(difluoromethyl)pyrrolidin-1-yl)imidazo[1,2-b]pyridazin-6-yl)pyrimidine-2,4(1H,3H)-dione] |
| 2 nM | 1.62 nM | N#Cc1ccc(OC2CN(c3cc(-c4c[nH]c(=O)[nH]c4=O)nn4ccnc34)CC2(F)F)cc1 (centres unmarked) [Example 231, 4-((1-(6-(2,4-dioxo-1,2,3,4-tetrahydropyrimidin-5-yl)imidazo[1,2-b]pyridazin-8-yl)-4,4-difluoropyrrolidin-3-yl)oxy)benzonitrile] |
| 6.18 nM | 2.15 nM | O=c1[nH]cc(-c2cc(N3CC(Oc4ccc(C(F)F)cn4)C(F)(F)C3)c3nccn3n2)c(=O)[nH]1 (centres unmarked) [Example 232, 5-(8-(4-((5-(difluoromethyl)pyridin-2-yl)oxy)-3,3-difluoropyrrolidin-1-yl)imidazo[1,2-b]pyridazin-6-yl)pyrimidine-2,4(1H,3H)-dione] |
